Laboratory results taken from patent US6472526B1, “Imidazole derivatives having an inhibitory activity for farnesyl transferase and process for preparation thereof” (LG Chemical Ltd., priority 1997, dated 2002).

How the values were obtained:
Ras farnesyl transferase [1] = target: T1, Ras farnesyl transferase (Rattus norvegicus, UniProt Q02293+Q04631); test: In vivo (cellular) inhibitory activity for Ras farnesyl transferase, Rat2 cell line transformed with fused protein of H-Ras substituted with polybasic lysine domain at C-terminus of K-Ras; type: cell-based; settings: Rat2 cell line transformed with H-Ras fused with polybasic lysine domain of K-Ras C-terminus; concentration inhibiting 50% of farnesyl bonding; read-out: K-Ras CIC50
T1 construct: endogenous in cells; host or cells: Rat2 fibroblasts transformed with H-Ras or with an H-Ras/K-Ras C-terminus fusion
In short: (§1)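 Farnesylated versus unfarnesylated Ras bands were measured by autoradiography after Y13-259 immunoprecipitation and SDS-PAGE, giving CIC50 as 50% inhibition of farnesylation. Rat2 cells expressing H-Ras or an H-Ras fusion with K-Ras polybasic C-terminus got compound (1% DMSO), then [35S]methionine from 4 h onward for 20 h.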

Ras farnesyl transferase [2] = target: T2, Ras farnesyl transferase (Homo sapiens, UniProt P49354+P49356); test: In vitro inhibitory activity for Ras farnesyl transferase, K-Ras substrate; type: biochemical; settings: in vitro farnesyl transferase assay, K-Ras; read-out: K-Ras IC50
T2 construct: made in house

Ras farnesyl transferase [3] = target: T1, Ras farnesyl transferase; test: In vivo (cellular) inhibitory activity for Ras farnesyl transferase, Rat2 cell line which expresses C-Harvey-Ras protein; type: cell-based; settings: Rat2 cell line expressing C-Harvey-Ras; concentration inhibiting 50% of farnesyl bonding of Ras protein; read-out: H-Ras CIC50
In short: as §1

Ras farnesyl transferase [4] = target: T2, Ras farnesyl transferase; test: In vitro inhibitory activity for Ras farnesyl transferase, H-Ras substrate; type: biochemical; settings: recombinant farnesyl transferase 4.5 nM, Ras substrate protein 1.5 μM, tritium-farnesylpyrophosphate 0.15 μM, 30 minutes at 37° C.; read-out: H-Ras IC50

| IC50 (Ras farnesyl transferase [1]) [µM] | IC50 (Ras farnesyl transferase [2]) [nM] | IC50 (Ras farnesyl transferase [3]) [nM] | IC50 (Ras farnesyl transferase [4]) [nM] | Structure (SMILES) |
| --- | --- | --- | --- | --- |
| 10 to 50 | 2 | 20 | 1 | COc1ccc(CCn2cncc2Cn2cc(C(=O)N3CCN(C)CC3)c(-c3cccc4ccccc34)c2)cc1 [Compound 20, 1-[1-(4-Methoxy)phenethyl-1H-imidazol-5-yl]methyl-3-[4-methylpiperazin-1-yl]carbonyl-4-(naphthalen-1-yl)-1H-pyrrole] |
| > 20 | 100 to 10000 | > 1000 | 1800 | COC(=O)C(CCSC)NC(=O)c1cn(Cc2cncn2Cc2ccc(C#N)cc2)cc1-c1cccc2ccccc12 (stereo in doubt) [Compound 100, (S)-1-[1-(4-Cyanobenzyl)-1H-imidazol-5-yl]methyl-3-[N-(1-methoxycarbonyl-3-methylthio)propyl]carbamoyl-4-(naphthalen-1-yl)-1H-pyrrole] |
| > 50 | 100 to 10000 | 4000 | 30 | O=C(c1cn(Cc2c[nH]cn2)cc1-c1cccc2ccccc12)N1CCOCC1 [Compound 85] |
| 10 to 50 | 5 | 12.5 | 1.2 | CN1CCN(C(=O)c2cn(Cc3cncn3CCc3ccccc3)cc2-c2cccc3ccccc23)CC1 [Compound 16, 3-(4-Methylpiperazin-1-yl)carbonyl-4-(naphthalen-1-yl)-1-[1-(phenethyl)-1H-imidazol-5-ylmethyl)-1H-pyrrole] |
| 10 to 50 | 2 | 25 | 2.7 | COCCN(C)C(=O)c1cn(Cc2cncn2Cc2ccccc2Cl)cc1-c1cccc2ccccc12 [Compound 134, 1-[1-(2-Chlorobenzyl)-1H-imidazol-5-yl]methyl-3-[N-(2-methoxyethyl)-N-methyl]carbamoyl-4-(naphthalen-1-yl)-1H-pyrrole] |
| 10 to 50 | 11 | 25 | 3.5 | COCCN(C)C(=O)c1cn(Cc2cncn2Cc2cccc(Cl)c2)cc1-c1cccc2ccccc12 [Compound 132, 1-[1-(3-Chlorobenzyl)-1H-imidazol-5-yl]methyl-3-[N-(2-methoxyethyl)-N-methyl]carbamoyl-4-(naphthalen-1-yl)-1H-pyrrole] |
| 10 to 50 | 3 | 20 | 2 | CN1CCN(C(=O)c2cn(Cc3cncn3CCc3ccc(Br)cc3)cc2-c2cccc3ccccc23)CC1 [Compound 34, 1-[1-(4-Bromo)phenethyl-1H-imidazol-5-yl]methyl-3-[4-methylpiperazin-1-yl]carbonyl-4-(naphthalen-1-yl)-1H-pyrrole] |
| 10 to 50 | 2 | 25 | 1 | COc1ccccc1CCn1cncc1Cn1cc(C(=O)N2CCN(C)CC2)c(-c2cccc3ccccc23)c1 [Compound 18, 1-[1-(2-Methoxy)phenethyl-1H-imidazol-5-yl]methyl-3-[4-methylpiperazin-1-yl]carbonyl-4-(naphthalen-1-yl)-1H-pyrrole] |
| 10 to 50 | 2 | 25 | 1 | O=C(c1cn(Cc2cncn2Cc2cccc3ccccc23)cc1-c1cccc2ccccc12)N1CCOCC1 [Compound 6] |
| 10 to 50 | 4 | 15 | 3 | COCCN(C)C(=O)c1cn(Cc2cncn2CCc2ccc3ccccc3c2)cc1-c1cccc2ccccc12 [Compound 41, 3-[N-(2-Methoxyethyl)-N-methyl]carbamoyl-4-(naphthalen-1-yl)-1-{1-[2-(naphthalen-2-yl)ethyl]-1H-imidazol-5-yl}methyl-1H-pyrrole] |
| 10 to 20 | 4 | 10 | 2 | COCCN(C)C(=O)c1cn(Cc2cncn2Cc2ccc3ccccc3c2)cc1-c1cccc2ccccc12 [Compound 29, 3-[N-(2-Methoxyethyl)-N-methyl]carbamoyl-4-(naphthalen-1-yl)-1-[1-(naphthalen-2-yl)methyl-1H-imidazol-5-yl]methyl-1H-pyrrole] |
| 10 to 100 | 750 | 100 to 1000 | 47 | CN(C)CCN(C)C(=O)c1cn(Cc2cncn2Cc2ccc3c(c2)OCO3)cc1-c1cccc2ccccc12 [Compound 4, 3-{N-[2-(N,N-Dimethylamino)ethyl]-N-methyl}carbamoyl-1-[1-(3,4-methylendioxybenzyl)-1H-imidazol-5-ylmethyl]-4-(naphthalen-1-yl)-1H-pyrrole] |
| 4 | 4 | 6 | 2 | CN1CCN(C(=O)c2cn(Cc3cncn3Cc3ccc(Br)cc3)cc2-c2cccc3ccccc23)CC1 [Compound 125, 1-[1-(4-Bromobenzyl)-1H-imidazol-5-yl]methyl-3-[4-methylpiperazin-1-yl]carbonyl-4-(naphthalen-1-yl)-1H-pyrrole] |
| 10 to 50 | 6.6 | 25 | 5 | C[C@@H](c1ccccc1)n1cncc1Cn1cc(C(=O)N2CCOCC2)c(-c2cccc3ccccc23)c1 [Compound 12, 1-[1-((S)-α-Methylbenzyl)-1H-imidazol-5-ylmethyl]-3-(morpholin-4-yl)carbonyl-4-(naphthalen-1-yl)-1H-pyrrole] |
| 10 to 50 | 8 | 25 | 4 | COCCN(C)C(=O)c1cn(Cc2cncn2[C@@H](C)c2ccccc2)cc1-c1cccc2ccccc12 [Compound 11] |
| 10 to 50 | 2.4 | 25 | 1.6 | Cc1ccc(Cn2cncc2Cn2cc(C(=O)N3CCN(C)CC3)c(-c3cccc4ccccc34)c2)cc1 [Compound 136] |
| 10 to 30 | 2 | 20 | 1 | CN1CCN(C(=O)c2cn(Cc3cncn3CCCc3ccccc3)cc2-c2cccc3ccccc23)CC1 [Compound 28] |
| 10 to 100 | 100 to 10000 | 1000 to 50000 | 600 | O=C(c1cn(Cc2c[nH]cn2)cc1-c1cccc2ccccc12)N1CCNCC1 [Compound 88] |
| > 50 | > 50000 | > 50000 | 8000 | COC(=O)c1sc(Cc2cncn2CC2CCN(C(=O)OCc3ccccc3)CC2)nc1-c1cccc2ccccc12 [Compound 150] |
| 10 to 100 | 100 to 10000 | 1000 to 50000 | 200 | N#Cc1ccc(C(=O)c2cn(Cc3c[nH]cn3)cc2-c2cccc3ccccc23)cc1 [Compound 60] |
| 10 to 100 | < 100 | < 100 | 4 | N#Cc1ccc(Cn2cncc2Cn2cc(C(=S)N3CCOCC3)c(-c3cccc4ccccc34)c2)cc1 [Compound 113, 1-[1-(4-Cyanobenzyl)-1H-imidazol-5-yl]methyl-3-(morpholin-4-yl)thiocarbonyl-4-(naphthalen-1-yl)-1H-pyrrole] |
| 15 | 200 | 100 | 20 | COCCN(C)C(=O)c1cn(Cc2cncn2Cc2ccc(Cl)cc2)nc1-c1cccc2ccccc12 [Compound 155, 1-[1-(4-Chlorobenzyl)-1H-imidazol-5-ylmethyl]-4-[N-(2-methoxyethyl)-N-methyl]-carbamoyl-3-(naphthalen-1-yl)-1H-pyrazole] |
| 10 to 100 | 1000 to 50000 | 1000 to 50000 | 8600 | O=C(c1cn(CCCc2c[nH]cn2)cc1-c1cccc2ccccc12)N1CCOCC1 [Compound 109] |
| 4 | 2 | 30 | 2 | COCCN(C)C(=O)c1cn(Cc2cncn2Cc2ccc(Br)cc2)cc1-c1cccc2ccccc12 [Compound 111, 1-[1-(4-Bromobenzyl)-1H-imidazol-5-yl]methyl-3-[N-(2-methoxyethyl)-N-methyl]carbamoyl-4-(naphthalen-1-yl)-1H-pyrrole] |
| 10 to 50 | 5 | 12.5 | 0.85 | CC(c1ccccc1)n1cncc1Cn1cc(C(=O)N2CCN(C)CC2)c(-c2cccc3ccccc23)c1 (stereo in doubt) [Compound 10, 1-[1-((R)-α-Methylbenzyl)-1H-imidazol-5-ylmethyl]-3-(4-methylpiperazin-1-yl)carbonyl-4-(naphthalen-1-yl)-1H-pyrrole] |
| 5 | 10 | 10 | 2 | CN1CCN(C(=O)c2cn(Cc3cncn3Cc3ccc(F)cc3)cc2-c2cccc3ccccc23)CC1 [Compound 128, 1-[1-(4-fluorobenzyl)-1H-imidazol-5-yl]methyl-3-[4-methylpiperazin-1-yl]carbonyl-4-(naphthalen-1-yl)-1H-pyrrole] |
| 10 to 100 | 10000 to 100000 | 10000 to 100000 | 12000 | O=C(c1cn(Cc2c[nH]cn2)cc1-c1ccc2c3c(cccc13)CC2)N1CCOCC1 [Compound 97] |
| > 50 | 22000 | 1000 to 50000 | 450 | COC(=O)[C@H](CC(C)C)NC(=O)c1cn(Cc2cncn2Cc2ccc(C#N)cc2)cc1-c1cccc2ccccc12 [Compound 102] |
